From ChEMBL document CHEMBL1201862, “PubChem BioAssay data set” (2004)
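Briefly, cells in 96-well plates were exposed to five compound concentrations for 48 h, and endpoints were estimated by linear interpolation. At the GI50, growth is halved.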 Activity calls are given as the source filed them. Cut-off read from the data, not from the text of the source: active = GI50 up to about 1.1 µM and inactive = higher.

Tests used:
Experiment in all cases: inhibition of tumour cell growth, NCI panel, 48 h
[1] = system: TK-10
[2] = system: IGROV-1
[3] = system: HL-60
[4] = system: NCI-H226
[5] = system: SF-539
[6] = system: NCI/ADR-RES
[7] = system: M14
[8] = system: HCT-15
[9] = system: 786-0
[10] = system: A549
[11] = system: SNB-75
[12] = system: OVCAR-4
[13] = system: NCI-H460
[14] = system: SNB-19
[15] = system: SF-268
[16] = system: CCRF-CEM
[17] = system: COLO 205
[18] = system: KM12
[19] = system: K562
[20] = system: DU-145
[21] = system: MCF7
[22] = system: HCC 2998
[23] = system: PC-3
[24] = system: HCT-116
[25] = system: MDA-MB-435
[26] = system: LOX IMVI
[27] = system: EKVX
[28] = system: UACC-257
[29] = system: SW-620
[30] = system: UACC-62
[31] = system: SK-MEL-2
[32] = system: MDA-N
[33] = system: OVCAR-3
[34] = system: U-251
[35] = system: MDA-MB-231
[36] = system: BT-549
[37] = system: SK-MEL-28
[38] = system: SK-MEL-5
[39] = system: Malme-3M
[40] = system: SN12C
[41] = system: NCI-H23
[42] = system: MOLT-4
[43] = system: SK-OV-3
[44] = system: RPMI-8226
[45] = system: ACHN
[46] = system: HT-29
[47] = system: NCI-H522
[48] = system: CAKI-1
[49] = system: OVCAR-8
[50] = system: OVCAR-5
[51] = system: HOP-62
[52] = system: SF-295
[53] = system: A498
[54] = system: T47D
[55] = system: HOP-92
[56] = system: UO-31

Measured: GI50

Cc1cc(S(=O)(=O)/N=C2\NCCN2Cc2ccccc2)c(S)cc1Cl
> 100 µM: [8]
inactive: [1] > 100 µM | [2] > 100 µM | [3] > 100 µM | [4] 61.2 µM | [5] > 100 µM | [6] > 100 µM | [7] > 100 µM | [9] > 100 µM | [10] > 100 µM | [11] > 100 µM | [12] > 100 µM | [13] > 100 µM | [14] > 100 µM | [15] 88.3 µM | [16] 7.35 µM | [17] > 100 µM | [18] > 100 µM | [19] > 100 µM | [20] > 100 µM | [21] > 100 µM | [22] > 100 µM | [23] > 100 µM | [24] > 100 µM | [25] > 100 µM | [26] > 100 µM | [27] > 100 µM | [28] > 100 µM | [29] > 100 µM | [30] 72.1 µM | [31] > 100 µM | [32] > 100 µM | [33] > 100 µM | [34] > 100 µM | [35] > 100 µM | [36] > 100 µM | [37] > 100 µM | [38] > 100 µM | [39] 43.7 µM | [40] > 100 µM | [41] > 100 µM | [42] 47.2 µM | [43] > 100 µM | [44] 10.5 µM | [45] > 100 µM | [46] > 100 µM | [47] 40.6 µM | [48] > 100 µM | [49] > 100 µM | [50] > 100 µM | [51] 76.2 µM | [52] 81.7 µM

Cc1ccc(Cc2nn(C)c(=O)n2N)cc1
inactive: [1] > 100 µM | [2] > 100 µM | [53] > 100 µM | [4] > 100 µM | [5] > 100 µM | [6] > 100 µM | [7] > 100 µM | [9] > 100 µM | [10] > 100 µM | [12] > 100 µM | [13] > 100 µM | [14] > 100 µM | [17] > 100 µM | [18] > 100 µM | [19] > 100 µM | [20] > 100 µM | [21] > 100 µM | [22] > 100 µM | [23] > 100 µM | [24] > 100 µM | [25] > 100 µM | [26] > 100 µM | [27] > 100 µM | [54] > 100 µM | [28] > 100 µM | [29] > 100 µM | [30] > 100 µM | [55] > 100 µM | [31] > 100 µM | [32] > 100 µM | [33] > 100 µM | [34] > 100 µM | [35] > 100 µM | [36] > 100 µM | [37] > 100 µM | [38] > 100 µM | [40] > 100 µM | [41] > 100 µM | [43] > 100 µM | [56] > 100 µM | [44] > 100 µM | [45] > 100 µM | [46] > 100 µM | [48] > 100 µM | [49] > 100 µM | [50] > 100 µM | [52] > 100 µM
> 100 µM: [8]
